These results are taken from patent US10844023B2 (Washington University, priority 2017, dated 2020).

Structures are written as SMILES.

The first test deals with Mfn2 null MEFs. The experiment in a line: Mitochondrial elongation (aspect ratio) fusogenicity assay. Details: % long compare to B: dose or concentration left out as unconfirmed. The following applies: Mfn2 null MEFs, overnight; treatment with 1 μM compound (footnote). It is filed as cell-based, mouse. The text has this: A cultured murine embryonic fibroblast assay system was used in which mitochondrial elongation (an increase in aspect ratio) reflects enhanced mitochondrial fusion.
A pharmacophore model was generated based on the interactions of HR1 and HR2 domains in the calculated structural model of Mfn2 in the closed conformation. The key features included hydrophobic interactions involving Mfn2 HR1: Val372 and Met376, and aromatic interactions and hydrogen bonding involving Mfn2 HR1 His380. […] A library comprising ˜14 million commercially available compounds was prepared in silico and evaluated using PHASE to fit these criteria. Top ranked hits were clustered, and filtered based on pharmacological properties using Qikprop. The top 55 (see TABLE 4) commercially available small molecules conforming to the model were selected for functional screening and purchased in 1 mg aliquots. […] Images were acquired by confocal microscopy. Each compound was scored for fusogenicity (see e.g., FIG. 24A) and % cell death (see e.g., FIG. 24B).
Cells were excited with 408 nm (Hoechst), […] (MitoTracker Green and Calcein AM, GFP), or 637 nm (TMRE, MitoTracker Orange, Ethidium homodimer-1, and AF594-Dextran) laser diodes. For mitochondrial elongation studies mitochondrial aspect ratio (long axis/short axis) was calculated using automated edge detection and Image J software. Mitochondrial depolarization was calculated as % of green mitochondria visualized on MitoTracker Green and TMRE merged images, expressed as green/(green+yellow mitochondria)×100.
Turning to `O=C(Nc1cc(CSCCOC(=O)C2C3CCCCC32)ccn1)C1C2CCCCC21` (stereo not drawn) [2-{[(2-{bicyclo[4.1.0]heptane-7-amido}pyridin-4-yl)methyl]sulfanyl}ethyl bicyclo[4.1.0]heptane-7-carboxylate], the “Aspect ratio (MEAN ± SEM)” value turned out to be 4.8 ± 1.0.

The test is the same for the next values; noted with them: mitochondrial elongation relative to Cpd B (B01 = 100); Mfn2 null MEFs, compound overnight as printed (FIG. 48).
Turning to `NC(=O)c1c(NC(=O)CSc2nnc(-c3cccnc3)n2-c2ccccc2)sc2c1CCC2` [1-F11, 2-(2-{[4-phenyl-5-(pyridin-3-yl)-4H-1,2,4-triazol-3-yl]sulfanyl]acet-amido)-4H,5H,6H-cyclopenta[b]-thiophene-3-carboxamide], the “% long compare to B” value stood at 13%. The same measure, in the same setting: with `Cc1ccccc1-n1c(SCC(=O)Nc2sc3c(c2C(N)=O)CCC3)nnc1-c1cccnc1` [1-G1, 2-(2-{[4-(2-methylphenyl)-5-(pyridin-3-yl)-4H-1,2,4-triazol-3-yl]sulfanyl}acet-amido)-4H,5H,6H-cyclopenta[b]thiophene-3-carboxamide] the figure was 141%. Still for that read-out and setting: the result for `NC(=O)c1c(NC(=O)CSc2nnc(-c3ccccc3)n2-c2ccccc2)sc2c1CCCC2` [1-G2, 2-{2-[(diphenyl-4H-1,2,4-triazol-3-yl)sulfanyl]acetamido}-4,5,6,7-tetrahydro-1-benzothiophene-3-carboxamide] reads 20%; that for `CC(Sc1nnc(C2CC2)n1-c1ccccc1)C(=O)Nc1sc2c(c1C#N)CCCCC2` (stereo not drawn) [1-G5, N-{3-cyano-4H,5H,6H,7H,8H-cyclohepta[b]thiophen-2-yl}-2-[(5-cyclopropyl-4-phenyl-4H-1,2,4-triazol-3-yl)sulfanyl]propana-mide], 7%. On the same count and under the same terms, with `CC(Sc1nnc(Cc2cccs2)n1C1CC1)C(=O)Nc1sc2c(c1C(N)=O)CCC2` (stereo not drawn) [1-G6, 2-[2-({4-cyclopropyl-5-[(thiophen-2-yl)methyl]-4H-1,2,4-triazol-3-yl}sulfanyl)propanamido]-4H,5H,6H-cyclopenta[b]thio-phene-3-carboxamide] the figure was 9%; with `CC(Sc1nccn1Cc1ccccc1)C(=O)Nc1sc2c(c1C(N)=O)CCC2` (stereo not drawn) [1-G7, 2-{2-[(1-benzyl-1H-imidazol-2-yl)sulfanyl]propanamido}-4H,5H,6H-cyclopenta[b]thio-phene-3-carboxamide], 3%. For `CC(Sc1nncn1-c1ccccc1)C(=O)Nc1sc2c(c1C(N)=O)CCC2` (stereo not drawn) [1-G8, 2-{2-[(4-phenyl-4H-1,2,4-triazol-3-yl)sulfanyl]propanamido}-4H,5H,6H-cyclopenta[b]thio-phene-3-carboxamide], the “% long compare to B” value stood at 14%. Regarding `Cc1nnc(SCC(=O)Nc2sc3c(c2C(N)=O)CCC3)n1-c1ccccc1` [1-H3, 2-{2-[(5-methyl-4-phenyl-4H-1,2,4-triazol-3-yl)sulfanyl]acet-amido}-4H,5H,6H-cyclo-penta[b]thiophene-3-carboxamide], the “% long compare to B” value stood at 10%. On the same count and under the same terms, with `NC(=O)c1c(NC(=O)CSc2nnc(-c3ccncc3)n2-c2ccc(F)cc2)sc2c1CCC2` [1-H5, 2-(2-{[4-(4-fluorophenyl)-5-(pyridin-4-yl)-4H-1,2,4-triazol-3-yl]sulfanyl]acetamido)-4H,5H,6H-cyclopenta[b]thio-phene-3-carboxamide] the figure was 23%. Same read-out and setting: the result for `CC(Sc1nnc(Cc2ccccc2)n1C)C(=O)Nc1sc2c(c1C(N)=O)CCC2` (stereo not drawn) [1-H6, 2-{2-[(5-benzyl-4-methyl-4H-1,2,4-triazol-3-yl)sulfanyl]propanamido}-4H.5H.6H-cyclopenta[b]-thiophene-3-carboxamide] reads 8%; that for `Cn1c(Cc2ccccc2)nnc1SCC(=O)Nc1sc2c(c1C(N)=O)CCC2` [1-H7, 2-{2-[(5-benzyl-4-methyl-4H-1,2,4-triazol-3-yl)sulfanyl]-acetamido}-4H,5H,6H-cyclopenta[b]thiophene-3-carboxamide], 6%.

Regarding `CC(Sc1nnc(-c2ccccc2)n1-c1ccccc1)C(=O)Nc1sc2c(c1C(N)=O)CCC2` (stereo not drawn) [1-H8, 2-{2-[(diphenyl-4H-1,2,4-triazol-3-yl)sulfanyl]propan-amido}-4H,5H,6H-cyclo-penta[b]thiophene-3-carboxamide], the “% long compare to B” value is listed as −4%.

As to `O=C(NCCSCc1ccccc1)NC1CCCC1` [1-H9, 1-[2-(benzylsulfanyl)ethyl]-3-cyclopentylurea], the “% long compare to B” value worked out at 29%. On the same count and under the same terms, the result for `NC(=O)c1c(NC(=O)CSc2nnc(C3CC3)n2Cc2ccccc2)sc2c1CCCC2` [1-H11, 2-{2-[(4-benzyl-5-cyclopropyl-4H-1,2,4-triazol-3-yl)-sulfanyl]acetamido}-4,5,6,7-tetrahydro-1-benzothiophene-3-carboxamide] reads 15%; that for `Cn1c(CC(=O)Nc2ccccc2)nnc1SCC(=O)Nc1sc2c(c1C(=O)NCc1ccccc1)CCCC2` [2-A1, N-benzyl-2-[2-({4-methyl-5-[(phenylcarbamoyl)methyl]-4H-1,2,4-triazol-3-yl}sulfanyl)acetamido]-4,5,6,7-tetrahydro-1-benzothiophene-3-carboxamide], 26%; that for `CCn1c(CCc2ccccc2)nnc1SCC(=O)Nc1sc2c(c1C(N)=O)CCC(C)C2` (stereo not drawn) [2-A4, 2-(2-{[4-ethyl-5-(2-phenylethyl)-4H-1,2,4-triazol-3-yl]sulfanyl}acetamido)-6-methyl-4,5,6,7-tetrahydro-1-benzothiophene-3-carboxamide], 3%.

Take `Cc1nnc(SCC(=O)Nc2sc3c(c2C(N)=O)CCC3)n1C` [2-A5, 2-{2-[(dimethyl-4H-1,2,4-triazol-3-yl)sulfanyl]acetamido}-4H,5H,6H-cyclopenta[b]thio-phene-3-carboxamide]: the “% long compare to B” value is 2%.

Take `CC(Sc1nnc(N2CCOCC2)n1Cc1ccccc1)C(=O)Nc1ccc2c(c1)OCO2` (stereo not drawn) [A01, N-(2H-1,3-benzodioxol-5-yl)-2-{[4-benzyl-5-(morpholin-4-yl)-4H-1,2,4-triazol-3-yl]sulfanyl)propana-mide]: the “% long compare to B” value is on record as −14%. The same measure, in the same setting: with `O=C(NCCCCc1ccccc1)Nc1ccc(F)cc1` [A2, 3-(4-fluorophenyl)-1-(4-phenylbutyl)urea] the figure was −4%; with `Cc1cccc(NC(=O)NCCCCc2ccccc2)c1` [A3, 3-(3-methylphenyl)-1-(4-phenylbutyl)urea], 32%; with `Cc1ccc(NC(=O)NCCCCc2ccccc2)cc1` [A4, 3-(4-methylphenyl)-1-(4-phenylbutyl)urea], 75%.

`CC(Sc1ccc(Br)cc1)C(=O)Nc1ccc2c(c1)OCCO2` (stereo not drawn) [A05, 2-[(4-bromophenyl)sulfanyl]-N-(2,3-dihydro-1,4-benzodioxin-6-yl)propanamide]: the “% long compare to B” value was −2%. Still for that read-out and setting: with `Cc1ccccc1NC(=O)NCCCCc1ccccc1` [A5, 3-(2-methylphenyl)-1-(4-phenylbutyl)urea] the figure was 7%; with `Cc1ccc2c(c1)SC(C(=O)NCc1ccc(N3CCCN(C)CC3)nc1)C2` (stereo not drawn) [A07, 6-methyl-N-{[6-(4-methyl-1,4-diazepan-1-yl)pyridin-3-yl]methyl}-2,3-dihydro-1-benzothiophene-2-carboxamide], 14%.

For the compound `CC(Sc1nc(CN2CCOCC2)nc2ccccc12)C(=O)Nc1cccc(C(F)(F)F)c1` (stereo not drawn) [A08, 2-({2-[(morpholin-4-yl)methyl]quinazolin-4-yl}sulfanyl)-N-[3-(trifluoromethyl)-phenyl]propanamide], the “% long compare to B” value came to 47%.

The same test, now with this note: rank order of aspect ratio among 44 soluble library compounds.
With `O=C(Nc1cc(CSCCOC(=O)C2C3CCCCC32)ccn1)C1C2CCCCC21` (stereo not drawn) [2-{[(2-{bicyclo[4.1.0]heptane-7-amido}pyridin-4-yl)methyl]sulfanyl}ethyl bicyclo[4.1.0]heptane-7-carboxylate], the “Fusogenicity Rank” value was found to be 10.
